Results as given in ChEMBL document CHEMBL1944621, “Design, synthesis, and biological evaluation of novel (1-thioxo-1,2,3,4-tetrahydro-β-carbolin-9-yl)acetic acids as selective inhibitors for AKR1B1” (Bioorg Med Chem, 2012).

Assays:
[1] = target: T1, Aldo-keto reductase family 1 member B1 (Homo sapiens, UniProt P15121); assay: Inhibition of human recombinant AKR1B1 expressed in Escherichia coli BL21 cells using pyridine-3-aldehyde as substrate by spectrophotometry
[2] = target: Aldo-keto reductase family 1 member B10 (Homo sapiens, UniProt O60218); assay: Inhibition of recombinant N-His6-tagged AKR1B10 expressed in Escherichia coli BL21 cells using pyridine-3-aldehyde as substrate by spectrophotometry
Chain of Aldo-keto reductase family 1 member B10 (O60218 whole entry): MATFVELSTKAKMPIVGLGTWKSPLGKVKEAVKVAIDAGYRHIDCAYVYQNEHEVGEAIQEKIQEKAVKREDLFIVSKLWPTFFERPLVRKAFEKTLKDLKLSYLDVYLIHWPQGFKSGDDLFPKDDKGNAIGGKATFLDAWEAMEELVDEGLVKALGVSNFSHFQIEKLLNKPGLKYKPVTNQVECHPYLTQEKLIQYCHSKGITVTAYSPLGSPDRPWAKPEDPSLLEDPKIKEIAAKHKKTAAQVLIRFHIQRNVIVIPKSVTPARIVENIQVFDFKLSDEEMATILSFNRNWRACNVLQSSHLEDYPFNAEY

[3] = target: T2, Aldo-keto reductase family 1 member A1 (Homo sapiens, UniProt P14550); assay: Inhibition of human recombinant AKR1A1 expressed in Escherichia coli BL21 cells using D-glucuronate as substrate by spectrophotometry
T2 sequence (P14550 whole entry): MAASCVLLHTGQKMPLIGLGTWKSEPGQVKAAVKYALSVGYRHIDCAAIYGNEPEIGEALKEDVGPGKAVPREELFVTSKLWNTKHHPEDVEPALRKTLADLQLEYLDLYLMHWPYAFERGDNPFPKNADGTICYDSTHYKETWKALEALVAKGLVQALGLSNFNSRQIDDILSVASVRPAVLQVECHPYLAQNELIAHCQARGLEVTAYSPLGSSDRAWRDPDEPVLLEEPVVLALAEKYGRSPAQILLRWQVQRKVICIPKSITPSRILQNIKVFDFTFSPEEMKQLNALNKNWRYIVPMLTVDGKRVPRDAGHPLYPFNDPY

[4] = target: T1, Aldo-keto reductase family 1 member B1
Description: Noncompetitive inhibition of human recombinant AKR1B1 using pyridine-3-aldehyde as substrate by Lineweaver-Burk plot analysis

IC50 [1] [nM]	IC50 [2] [nM]	IC50 [3] [nM]	Kii [4] [nM]	Kis [4] [nM]	Structure (SMILES)
320	1400	11000	–	–	O=C(O)Cn1c2c(c3cc(Br)ccc31)CCN(Cc1ccccc1)C2=S
350	1400	15000	–	–	O=C(O)Cn1c2c(c3cc(Cl)ccc31)CCN(Cc1ccccc1)C2=S
230	3300	19000	–	–	O=C(O)Cn1c2c(c3cc(F)ccc31)CCN(Cc1ccccc1)C2=S
200	1900	–	–	–	O=C(O)Cn1c2c(c3cc(O)ccc31)CCN(Cc1ccccc1)C2=S
220	5100	9500	–	–	O=C(O)Cn1c2c(c3ccccc31)CCN(Cc1ccccc1)C2=S
240	1400	21000	–	–	O=C(O)Cn1c2c(c3ccc(Cl)cc31)CCN(Cc1ccccc1)C2=S
190	1400	11000	–	–	O=C(O)Cn1c2c(c3cc(I)ccc31)CCN(Cc1ccccc1)C2=S
5900	850	14000	–	–	O=C(O)Cn1c2c(c3ccccc31)CCN(Cc1ccc(Br)cc1)C2=S
31000	21000	–	–	–	O=C(O)Cn1c2c(c3ccccc31)CCN(c1ccccc1)C2=S

The remaining lines, values behind:

Structure (SMILES)	IC50 [1] [nM]	IC50 [2] [nM]	IC50 [3] [nM]	Kii [4] [nM]	Kis [4] [nM]
O=C(O)Cn1c2c(c3cc(F)ccc31)CCN(Cc1ccc(C(F)(F)F)cc1)C2=S	10000	1600	–	–	–
O=C(O)Cn1c2c(c3cc(C(=O)O)ccc31)CCN(Cc1ccccc1)C2=S	170	40000	53000	220	55
COc1ccc2c(c1)c1c(n2CC(=O)O)C(=S)N(Cc2ccccc2)CC1	150	2900	12000	180	79
O=C(O)Cn1c2c(c3c(F)cc(F)cc31)CCN(CCc1ccccc1)C2=S	1800	400	–	–	–
O=C(O)Cn1c2c(c3c(F)cc(F)cc31)CCN(Cc1ccccc1)C2=S	1300	480	4700	–	–
O=C(O)Cn1c2c(c3ccccc31)CCN(Cc1ccc(C(F)(F)F)cc1)C2=S	14000	3800	–	–	–
O=C(O)Cn1c2c(c3cc(F)ccc31)CCN(Cc1ccc(Br)cc1F)C2=S	1700	280	–	–	–
O=C(O)Cn1c2c(c3c(Cl)cc(Cl)cc31)CCN(Cc1ccccc1)C2=S	190	6100	10000	–	–
CC(C)c1ccc2c(c1)c1c(n2CC(=O)O)C(=S)N(Cc2ccccc2)CC1	200	3400	16000	–	–
O=C(O)Cn1c2c(c3ccccc31)CCN(Cc1ccc(Br)cc1F)C2=S	4200	680	–	–	–
